Measured values reported in the supplement of paper PMC10307832.

Experiments:
Assay in all cases: relative viability (nuclei count vs DMSO), 5 days (fraction); higher = more cells survive
Venetoclax + Foretinib = compound: CC1(C)CCC(CN2CCN(c3ccc(C(=O)NS(=O)(=O)c4ccc(NCC5CCOCC5)c([N+](=O)[O-])c4)c(Oc4cnc5[nH]ccc5c4)c3)CC2)=C(c2ccc(Cl)cc2)C1 [Venetoclax] + COc1cc2c(Oc3ccc(NC(=O)C4(C(=O)Nc5ccc(F)cc5)CC4)cc3F)ccnc2cc1OCCCN1CCOCC1 [Foretinib] (partner 0.25 µM)
Summary of the method: (§1)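 A single step with final 0.05% Triton X-100, 1% formaldehyde and 1 ug/ml Hoechst fixed the cells and stained nuclei 5 days after treatment. Lung cancer cell lines in 1536-well plates had been treated by pin tool the day after seeding with one drug alone or a fixed anchor-drug dose plus five library-drug doses (not always all listed) in √10 steps, and nuclei were counted on 4× images. Relative viability is the ratio of nuclei in treated wells to nuclei in vehicle wells, taken as the median of duplicate plates.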

Venetoclax + Navitoclax = compound: CC1(C)CCC(CN2CCN(c3ccc(C(=O)NS(=O)(=O)c4ccc(NCC5CCOCC5)c([N+](=O)[O-])c4)c(Oc4cnc5[nH]ccc5c4)c3)CC2)=C(c2ccc(Cl)cc2)C1 [Venetoclax] + CC1(C)CCC(c2ccc(Cl)cc2)=C(CN2CCN(c3ccc(C(=O)NS(=O)(=O)c4ccc(N[C@H](CCN5CCOCC5)CSc5ccccc5)c(S(=O)(=O)C(F)(F)F)c4)cc3)CC2)C1 [Navitoclax] (partner 0.5 µM)
Summary of the method: as §1

Selumetinib = compound: Cn1cnc2c(F)c(Nc3ccc(Br)cc3Cl)c(C(=O)NOCCO)cc21 [Selumetinib]
Summary of the method: (§2)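 MetaXpress counted nuclei in 4× images of lung cancer cell lines that had been fixed, permeabilised and Hoechst-stained in one step. Before that, cells in 1536-well plates were kept overnight at 37 °C, pinned with five √10-spaced library-drug doses on vehicle-anchored plates, and cultured 5 days without medium change. Viability takes treated-well nuclei over vehicle-well nuclei and uses the median across plates. Plates were accepted only at control CV below 25% and at least one doubling.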

Venetoclax = compound: CC1(C)CCC(CN2CCN(c3ccc(C(=O)NS(=O)(=O)c4ccc(NCC5CCOCC5)c([N+](=O)[O-])c4)c(Oc4cnc5[nH]ccc5c4)c3)CC2)=C(c2ccc(Cl)cc2)C1 [Venetoclax]
Summary of the method: as §2

Cell Line | relative viability (Venetoclax + Foretinib; first compound 0.01 µM) | relative viability (Venetoclax + Foretinib; first compound 0.03162 µM) | relative viability (Venetoclax + Foretinib; first compound 0.1 µM) | relative viability (Venetoclax + Foretinib; first compound 0.3162 µM) | relative viability (Venetoclax + Foretinib; first compound 1 µM) | relative viability (Venetoclax + Navitoclax; first compound 0.01 µM) | relative viability (Venetoclax + Navitoclax; first compound 0.03162 µM) | relative viability (Venetoclax + Navitoclax; first compound 0.1 µM) | relative viability (Venetoclax + Navitoclax; first compound 0.3162 µM) | relative viability (Venetoclax + Navitoclax; first compound 1 µM) | relative viability (Selumetinib; 0.02 µM) | relative viability (Selumetinib; 0.06325 µM) | relative viability (Selumetinib; 0.2 µM) | relative viability (Selumetinib; 0.6325 µM) | relative viability (Venetoclax; 0.01 µM) | relative viability (Venetoclax; 0.03162 µM) | relative viability (Venetoclax; 0.1 µM) | relative viability (Venetoclax; 0.3162 µM) | relative viability (Venetoclax; 1 µM)
HCC-78 | 0.518 | 0.54 | 0.525 | 0.484 | 0.576 | 0.97 | 0.895 | 0.688 | 0.755 | 0.84 | 0.924 | 0.853 | 0.802 | 0.91 | 1.1 | 1.21 | 1.01 | 0.959 | 0.942
HOP-62 | 1.07 | 1.16 | 0.997 | 1.08 | 1.03 | 0.988 | 1.17 | 1.09 | 1.13 | 1 | 1.02 | 0.897 | 0.886 | 0.549 | 1 | 1.05 | 0.989 | 0.973 | 0.927
NCI-H1623 | 0.897 | 0.906 | 0.893 | 0.836 | 0.858 |  |  |  |  |  | 0.85 | 0.83 | 0.79 | 0.714 | 0.951 | 1.02 | 0.96 | 1.01 | 1.02
NCI-H3122 | 0.954 | 0.996 | 0.924 | 0.942 | 0.96 | 1.11 | 1.03 | 1.03 | 1.01 | 1.01 | 0.846 | 0.75 | 0.697 | 0.67 | 1.06 | 1 | 0.967 | 0.962 | 0.983
RERF-LC-KJ | 0.793 | 0.94 | 0.871 | 0.927 | 0.784 | 0.994 | 0.961 | 0.794 | 1.08 | 0.89 | 1 | 0.936 | 0.968 | 0.886 | 0.987 | 1.06 | 0.972 | 0.909 | 0.926
NCI-H1703 | 0.345 |  | 0.397 | 0.328 | 0.367 | 1.33 | 1.24 | 0.969 | 1.01 | 1.04 | 0.974 | 0.816 | 0.9 | 0.909 | 0.869 | 0.953 | 0.917 | 0.99 | 0.788
HCC-15 | 0.998 | 1.02 | 0.96 | 0.931 | 0.825 | 0.674 | 0.707 | 0.635 | 0.621 | 0.588 | 0.844 | 0.64 | 0.487 | 0.389 | 0.937 | 1.07 | 0.929 | 0.902 | 0.909
NCI-H1563 | 0.922 | 0.968 | 0.961 | 1.05 | 0.94 |  |  |  |  |  | 0.957 | 0.868 | 0.981 | 0.91 | 0.999 | 0.963 | 0.971 | 1.04 | 1.07
ABC-1 | 0.867 | 1.22 | 0.976 | 0.961 | 0.922 |  |  |  |  |  | 0.885 | 0.757 | 0.875 | 0.841 | 1.11 | 0.981 | 0.974 | 0.938 | 0.897
SW 900 | 0.745 | 1.05 | 0.823 | 0.916 | 1.16 |  |  |  |  |  | 0.805 | 0.776 | 0.79 | 0.809 | 0.795 | 0.954 | 0.716 | 0.878 | 0.836
NCI-H1648 |  |  |  |  |  |  |  |  |  |  | 0.729 | 0.961 | 0.904 | 0.797 | 0.661 | 0.966 | 0.94 | 0.822 | 0.791
LCLC-103H | 0.758 | 0.782 | 0.698 | 0.767 | 0.801 |  |  |  |  |  | 0.916 | 0.897 | 0.87 | 0.84 | 1.06 | 0.999 | 1.04 | 1.01 | 1
HCC-44 |  |  |  |  |  | 0.987 | 0.943 | 0.891 | 0.979 | 0.975 | 1 | 1.01 | 1.04 | 1.1 | 0.935 | 0.955 | 0.983 | 0.974 | 0.929
NCI-H358 | 0.69 | 0.66 | 0.694 | 0.695 | 0.638 |  |  |  |  |  | 0.618 | 0.456 | 0.373 | 0.31 | 1.04 | 0.916 | 0.898 | 0.975 | 0.863
NCI-H2342 | 1 | 1.23 | 1.03 | 1.01 | 1.13 |  |  |  |  |  | 0.888 | 0.896 | 0.943 | 0.946 | 1 | 0.984 | 1.03 | 1 | 0.967
NCI-H650 | 0.98 | 0.964 | 1.06 | 0.996 | 1.01 |  |  |  |  |  | 1.1 | 1.09 | 1.39 | 1.26 | 0.934 | 1.05 | 0.876 | 1.1 | 0.855
NCI-H522 |  |  |  |  |  |  |  |  |  |  | 0.896 | 0.957 | 1.02 | 0.927 | 0.955 | 1.02 | 0.976 | 0.988 | 0.982
NCI-H661 | 0.978 | 1.01 | 1.02 | 0.996 | 0.888 |  |  |  |  |  | 1.01 | 0.954 | 0.979 | 1 | 0.964 | 1.07 | 0.949 | 0.995 | 0.966
NCI-H1792 |  |  |  |  |  | 0.649 | 0.71 | 0.696 | 0.671 | 0.601 | 0.901 | 0.728 | 0.827 | 0.689 | 0.892 | 1.06 | 0.918 | 0.98 | 0.856
